Data from the NIST ThermoML archive (doi:10.1016/j.jct.2011.10.023).
± gives the expanded uncertainty stated by the source.

Conditions: Liquid, Vibrating tube method

CCO [ethanol]
mass density [kg/m3]
Conditions | 278.15 K | 288.15 K | 298.15 K | 308.15 K | 318.15 K | 328.15 K | 338.15 K | 348.15 K | 358.15 K
100 kPa | 801.9 ± 2.4 | 793.4 ± 2.4 | 784.8 ± 2.4 | 776.1 ± 2.4 | 767.4 ± 2.4 | 758.4 ± 2.4 | 749.1 ± 2.4 | 739.5 ± 2.4 | 729.5 ± 2.4
1000 kPa | 802.7 ± 2.4 | 794.2 ± 2.4 | 785.6 ± 2.4 | 777 ± 2.4 | 768.3 ± 2.4 | 759.4 ± 2.4 | 750.2 ± 2.4 | 740.7 ± 2.4 | 730.7 ± 2.4
5000 kPa | 805.9 ± 2.4 | 797.6 ± 2.4 | 789.3 ± 2.4 | 780.9 ± 2.4 | 772.4 ± 2.4 | 763.7 ± 2.4 | 754.8 ± 2.4 | 745.6 ± 2.4 | 736 ± 2.4
10000 kPa | 809.9 ± 2.4 | 801.8 ± 2.4 | 793.6 ± 2.4 | 785.4 ± 2.4 | 777.2 ± 2.4 | 768.8 ± 2.4 | 760.1 ± 2.4 | 751.3 ± 2.4 | 742.1 ± 2.4
15000 kPa | 813.6 ± 2.4 | 805.8 ± 2.4 | 797.7 ± 2.4 | 789.7 ± 2.4 | 781.7 ± 2.4 | 773.6 ± 2.4 | 765.2 ± 2.4 | 756.6 ± 2.4 | 747.7 ± 2.4
20000 kPa | 817.2 ± 2.4 | 809.5 ± 2.4 | 801.7 ± 2.4 | 793.9 ± 2.4 | 786 ± 2.4 | 778.1 ± 2.4 | 769.9 ± 2.4 | 761.6 ± 2.4 | 753 ± 2.4
25000 kPa | 820.6 ± 2.4 | 813.1 ± 2.4 | 805.3 ± 2.4 | 797.8 ± 2.4 | 790.1 ± 2.4 | 782.4 ± 2.4 | 774.4 ± 2.4 | 766.4 ± 2.4 | 758 ± 2.4
30000 kPa | 824 ± 2.4 | 816.6 ± 2.4 | 809 ± 2.4 | 801.5 ± 2.4 | 794 ± 2.4 | 786.5 ± 2.4 | 778.7 ± 2.4 | 770.8 ± 2.4 | 762.8 ± 2.4
35000 kPa | 827.2 ± 2.4 | 819.9 ± 2.4 | 812.5 ± 2.4 | 805.2 ± 2.4 | 797.8 ± 2.4 | 790.4 ± 2.4 | 782.8 ± 2.4 | 775.1 ± 2.4 | 767.2 ± 2.4
40000 kPa | 830.3 ± 2.4 | 823.1 ± 2.4 | 815.9 ± 2.4 | 808.7 ± 2.4 | 801.4 ± 2.4 | 794.2 ± 2.4 | 786.7 ± 2.4 | 779.2 ± 2.4 | 771.5 ± 2.4
45000 kPa | 833.3 ± 2.4 | 826.3 ± 2.4 | 819.2 ± 2.4 | 812 ± 2.4 | 804.9 ± 2.4 | 797.8 ± 2.4 | 790.5 ± 2.4 | 783.1 ± 2.4 | 775.6 ± 2.4
50000 kPa | 836.3 ± 2.4 | 829.3 ± 2.4 | 822.3 ± 2.4 | 815.3 ± 2.4 | 808.3 ± 2.4 | 801.3 ± 2.4 | 794.1 ± 2.4 | 786.9 ± 2.5 | 779.5 ± 2.5
55000 kPa | 839.1 ± 2.4 | 832.3 ± 2.4 | 825.4 ± 2.4 | 818.5 ± 2.4 | 811.6 ± 2.4 | 804.7 ± 2.4 | 797.7 ± 2.5 | 790.5 ± 2.5 | 783.3 ± 2.5
60000 kPa | 841.8 ± 2.4 | 835 ± 2.4 | 828.1 ± 2.4 | 821.4 ± 2.4 | 814.6 ± 2.5 | 807.8 ± 2.5 | 800.8 ± 2.5 | 793.8 ± 2.5 | 786.7 ± 2.5

CCCCCCCO [heptan-1-ol]
mass density [kg/m3]
Conditions | 278.15 K | 288.15 K | 298.15 K | 308.15 K | 318.15 K | 328.15 K | 338.15 K | 348.15 K | 358.15 K
100 kPa | 832.4 ± 2.5 | 825.5 ± 2.5 | 818.5 ± 2.5 | 811.4 ± 2.5 | 804.3 ± 2.5 | 797.1 ± 2.5 | 789.7 ± 2.5 | 782.1 ± 2.5 | 774.2 ± 2.5
1000 kPa | 833 ± 2.5 | 826.1 ± 2.5 | 819.1 ± 2.5 | 812.1 ± 2.5 | 805 ± 2.5 | 797.8 ± 2.5 | 790.4 ± 2.5 | 782.9 ± 2.5 | 775.1 ± 2.5
5000 kPa | 835.4 ± 2.5 | 828.6 ± 2.5 | 821.8 ± 2.5 | 814.7 ± 2.5 | 807.9 ± 2.5 | 800.9 ± 2.5 | 793.7 ± 2.5 | 786.3 ± 2.5 | 778.7 ± 2.5
10000 kPa | 838.3 ± 2.5 | 831.7 ± 2.5 | 824.9 ± 2.5 | 818.3 ± 2.5 | 811.4 ± 2.5 | 804.6 ± 2.5 | 797.5 ± 2.5 | 790.4 ± 2.5 | 783 ± 2.5
15000 kPa | 841.2 ± 2.5 | 834.7 ± 2.5 | 828.1 ± 2.5 | 821.5 ± 2.5 | 814.8 ± 2.5 | 808.1 ± 2.5 | 801.2 ± 2.5 | 794.2 ± 2.5 | 787.1 ± 2.5
20000 kPa | 843.9 ± 2.5 | 837.6 ± 2.5 | 831.1 ± 2.5 | 824.6 ± 2.5 | 818.1 ± 2.5 | 811.5 ± 2.5 | 804.7 ± 2.5 | 797.9 ± 2.5 | 790.9 ± 2.5
25000 kPa | 846.4 ± 2.5 | 840.4 ± 2.5 | 833.9 ± 2.5 | 827.6 ± 2.5 | 821.2 ± 2.5 | 814.7 ± 2.5 | 808.1 ± 2.5 | 801.4 ± 2.5 | 794.6 ± 2.5
30000 kPa | 849.2 ± 2.5 | 843.1 ± 2.5 | 836.7 ± 2.5 | 830.5 ± 2.5 | 824.2 ± 2.5 | 817.8 ± 2.5 | 811.4 ± 2.5 | 804.8 ± 2.5 | 798.2 ± 2.5
35000 kPa | 851.7 ± 2.5 | 845.7 ± 2.5 | 839.5 ± 2.5 | 833.3 ± 2.5 | 827.1 ± 2.5 | 820.8 ± 2.5 | 814.6 ± 2.5 | 808.1 ± 2.5 | 801.5 ± 2.5
40000 kPa | 854.2 ± 2.5 | 848.2 ± 2.5 | 842.1 ± 2.5 | 836 ± 2.5 | 829.9 ± 2.5 | 823.8 ± 2.5 | 817.5 ± 2.5 | 811.3 ± 2.5 | 804.9 ± 2.5
45000 kPa | 856.6 ± 2.5 | 850.7 ± 2.5 | 844.7 ± 2.5 | 838.7 ± 2.6 | 832.7 ± 2.6 | 826.6 ± 2.6 | 820.6 ± 2.6 | 814.3 ± 2.6 | 808.1 ± 2.6
50000 kPa | 859 ± 2.6 | 853.1 ± 2.6 | 847.2 ± 2.6 | 841.3 ± 2.6 | 835.4 ± 2.6 | 829.4 ± 2.6 | 823.4 ± 2.6 | 817.3 ± 2.6 | 811.1 ± 2.6
55000 kPa | 861.3 ± 2.6 | 855.5 ± 2.6 | 849.7 ± 2.6 | 843.8 ± 2.6 | 838 ± 2.6 | 832.1 ± 2.6 | 826.2 ± 2.6 | 820.2 ± 2.6 | 814.1 ± 2.6
60000 kPa | 863.4 ± 2.6 | 857.8 ± 2.6 | 852.1 ± 2.6 | 846.1 ± 2.6 | 840.4 ± 2.6 | 834.5 ± 2.6 | 828.7 ± 2.6 | 822.8 ± 2.6 | 816.9 ± 2.6
